Data on 1 compound can be found in article PMC5342196 (PLoS ONE, 2017).

For this assay, the system named is Lac161_ORF7. The experiment in a line: glucose release, glucose oxidase/peroxidase assay. Format: biochemical, metagenome: corn field soil. The settings on record: 100 mM MES pH 6.0, 50 °C (methods print Lac161_ORF3 for this temperature), 30 min.

Molecules are shown by their SMILES.

Turning to `OC[C@H]1O[C@@H](O[C@H]2[C@H](O)[C@@H](O)C(O)O[C@@H]2CO)[C@H](O)[C@@H](O)[C@H]1O` (stereo partly shown) [lactose], the Km (usually the concentration of substrate that gives half-maximal velocity) came out at 1800 µM.
